According to patent US20110195982A1, “PREDICTIVE MARKER FOR EGFR INHIBITOR TREATMENT” (priority 2007, published 2011):

Tests used:
NSCLC [1] = details: single agent, after failure of standard therapy for advanced disease, versus placebo; cited from earlier work
[2] = doses that provide the targeted effective concentration; cited from earlier work
[3] = patients with cancer, 150 mg/day; cited from earlier work
advanced NSCLC = assay: open-label, predictive marker identification Phase II study of Tarceva monotherapy; type: in vivo, human
Experimental: The selection of this dose was based on pharmacokinetic parameters, as well as the safety and tolerability profile of this dose observed in Phase I, II and III trials in heavily pre-treated patients with advanced cancer. Drug levels seen in the plasma of patients with cancer receiving the 150 mg/day dose were consistently above the average plasma concentration of 500 ng/ml targeted for clinical efficacy.
This was an open-label, predictive marker identification Phase II study. The study was conducted in approximately 26 sites in about 12 countries. 264 patients with advanced NSCLC following failure of at least one prior chemotherapy regimen were enrolled over a 12 month period. […] Dose reductions were permitted based on tolerability to drug therapy. Clinical and laboratory parameters were assessed to evaluate disease control and toxicity. Treatment continued until disease progression, unacceptable toxicity or death. The study design is depicted in FIG. 1.
The RECIST (Uni-dimensional Tumour Measurement) criteria were used to evaluate response. These criteria can be found under the following link: http://www.eortc.be/recist/
Note that: To be assigned a status of CR or PR, changes in tumour measurements must be confirmed by repeated assessments at least 4 weeks apart at any time during the treatment period.
In the case of SD, follow-up measurements must have met the SD criteria at least once after study entry at a minimum interval of 6 weeks.
In the case of maintained SD, follow-up measurements must have met the SD criteria at least once after study entry with maintenance duration of at least 12 weeks.
A regular status check every 3 months was performed either by a patient's visit to the clinic or by telephone. All deaths were recorded. At the end of the study a definitive confirmation of survival was required for each patient.

NSCLC [4] = details: second line after cisplatin-based first-line regimens, ECOG 0, 1 or 2, versus best supportive care; cited from earlier work
NSCLC [5] = details: second line therapy of NSCLC; cited from earlier work
[6] = 75 patients with qRT-PCR results
[7] = 102 patients with microarray data
[8] = all 264 enrolled patients, 150 mg/day oral
[9] = of the 102 patients with microarray data

Compound: C#Cc1cccc(Nc2ncnc3cc(OCCOC)c(OCCOC)cc23)c1 [Tarceva, erlotinib]
- survival of NSCLC patients (NSCLC [1]): significantly prolongs and improves the survival
- safety and tolerability [2]: safe and generally well tolerated
- drug levels in plasma [3]: > 500 ng/mL
- PD (advanced NSCLC; [6]): 52%
- partial response (PR) (advanced NSCLC; [6]): 5%
- Best Response SD, n (%) (advanced NSCLC; [7]): 31 (30.4%)
- Clinical Benefit YES, n (%) (advanced NSCLC; [7]): 21 (20.6%)
- clinical benefit (objective response or stable disease for 12 weeks or more) (advanced NSCLC; [8]): 31.4%
- median overall survival (advanced NSCLC; [8]): 7.6 (CI 7-9) months
- median progression-free survival (advanced NSCLC; [8]): 11.3 (CI 8-12) weeks
- patients achieving an objective response (advanced NSCLC; all 264 enrolled patients, 150 mg/day oral, RECIST): 13.6%
- number of partial responders (PR) (advanced NSCLC; [9]): 6
- number of patients with PD (advanced NSCLC; [9]): 49
- number of patients with SD (advanced NSCLC; [9]): 31
- patients achieving a CR (advanced NSCLC; [9]): no patients achieving a CR

Compound: CC(=O)O[C@@]12CO[C@@H]1C[C@H](O)[C@@]1(C)C(=O)[C@H](O)C3=C(C)[C@@H](OC(=O)[C@H](O)[C@@H](NC(=O)OC(C)(C)C)c4ccccc4)C[C@@](O)([C@@H](OC(=O)c4ccccc4)[C@H]21)C3(C)C [docetaxel]
- survival (NSCLC [4]): improved survival

Compound: Nc1nc2[nH]cc(CCc3ccc(C(=O)N[C@@H](CCC(=O)O)C(=O)O)cc3)c2c(=O)[nH]1 [pemetrexed]
- efficacy compared with docetaxel (NSCLC [5]): clinically equivalent efficacy
- side effects compared with docetaxel (NSCLC [5]): significantly fewer side effects
